Source: patent publication US11661409B1, “Acid addition salts, compositions, and methods of treating” (Pioneura Corporation, priority 2022, dated 2023)
“Also recorded” adds a separate entry of the source. Where two headings read alike, the source gives them in different places.

Key:
[1] = Solubility and plasma levels of Compound 1 (general statements); format: physicochemical
Description: There is a significant, unmet need for means to administer Compound 1 to treat diseases or disorders, such as diseases or disorders associated with neuroinflammation. The present disclosure fulfills these and other needs, as evident in reference to the following disclosure.
To improve solubility, attempts to prepare acid addition salts from suitably acidic carboxylic acids (e.g., fumaric acid, maleic acid, citric acid, tartaric acid), standard mineral acids (e.g., hydrobromic acid, sulfuric acid, phosphoric acid), and sulfonic acids (e.g., toluenesulfonic acid, methanesulfonic acid, ethanesulfonic acid, benzenesulfonic acid), were conducted.

[2] = mice; cited from earlier work
[3] = Solubility in methanol, ethanol, 95% ethanol; format: physicochemical
Description: Dual solvent systems were used, comprising methanol and ether, by dissolving the salt in a small volume of methanol and then adjusting the solubility by adding ether to the point of slight cloudiness. These samples then remained in the reaction vessel as needed to precipitate.

[4] = Pharmacokinetics of aqueous suspensions in mice; details: for Cmax: equimolar dose 10 mg/kg of free base, plasma Compound 1
Experimental: (§1) Blood was sampled with microbleeds frequently to produce the pharmacokinetics curves (AUCs).
(§2) The dosing suspension was analyzed before administration to the animals to ensure that the actual concentration was known.

[5] = mouse, in vivo, 10 mg/kg
Experimental: as §1, §2

[6] = Dissolution behaviour in water; format: physicochemical
Experimental: Pharmaceutically acceptable salts were prepared using tartaric acid, fumaric acid, and phosphoric acid.

[7] = mice, aqueous suspension, 10 mg/kg of free base, 10 mg/kg
[8] = mice, aqueous suspension, 10 mg/kg of free base

Molecule: CN1CCN(Cc2ccc(-c3cnc4[nH]cc(-c5ccc6[nH]ccc6c5)c4c3)cc2)CC1 [Compound 1, 3-(1H-indol-5-yl)-5-[4-[(4-methyl-1-piperazinyl)methyl]phenyl]-1H-pyrrolo[2,3-b]pyridine]
- plasma serum levels upon administration without excipients such as DMSO [1]: only low plasma serum levels
- solubility in water / aqueous and organic carriers [1]: insoluble in water; also recorded: limited solubility in typical aqueous and organic carriers
- pharmacokinetic properties and CNS penetration [2]: excellent pharmacokinetic properties and central nervous system (CNS) penetration
- solubility in methanol, ethanol or 95% ethanol ([3]; listed as free base): not very soluble in methanol, ethanol, or 95% ethanol at room temperature
- Mean plasma concentration at 0.33 hr ([4]; mice, aqueous suspension, 10 mg/kg of free base, 0.33 hr, 10 mg/kg): LLQ
- Mean plasma concentration at 1.0 hr [4, 7]: 1.91 ng/mL
- Mean plasma concentration at 1.5 hr [4, 7]: 10.0 ng/mL
- concentration at 0.67 h ([4]; mouse, plasma, oral, 10 mg/kg, Mean plasma concentration at 0.67 hr, mice, aqueous suspension, 10 mg/kg of free base, 0.67 hr): 1.46 ng/mL
- concentration at 2 h ([4]; mouse, plasma, oral, 10 mg/kg, Mean plasma concentration at 2.0 hr, mice, aqueous suspension, 10 mg/kg of free base, 2.0 hr): 20.4 ng/mL
- concentration at 4 h ([4]; mouse, plasma, oral, 10 mg/kg, Mean plasma concentration at 4.0 hr, mice, aqueous suspension, 10 mg/kg of free base, 4.0 hr): 46.9 ng/mL
- Tmax ([4]; mouse, plasma, po, 10 mg/kg): 6 h
- AUC(0-t) ([4]; mouse, plasma, po, 10 mg/kg, AUClast, mice, aqueous suspension, 10 mg/kg of free base, 6-hour study): 181 ng·h/mL
- Cmax ([4]; mouse, plasma, po, 10 mg/kg, Cmax, mice, aqueous suspension): 56.3 ng/mL

Molecule: CN1CCN(Cc2ccc(-c3cnc4[nH]cc(-c5ccc6[nH]ccc6c5)c4c3)cc2)CC1 [Fumarate, 3-(1H-indol-5-yl)-5-[4-[(4-methyl-1-piperazinyl)methyl]phenyl]-1H-pyrrolo[2,3-b]pyridine]
- solubility in methanol, ethanol or 95% ethanol [3]: dissolved readily in hot methanol

Molecule: CN1CCN(Cc2ccc(-c3cnc4[nH]cc(-c5ccc6[nH]ccc6c5)c4c3)cc2)CC1 [Phosphate, 3-(1H-indol-5-yl)-5-[4-[(4-methyl-1-piperazinyl)methyl]phenyl]-1H-pyrrolo[2,3-b]pyridine]
- solubility in methanol, ethanol or 95% ethanol [3]: least soluble in methanol of the three salts tested
- solubility in methanol, ethanol or 95% ethanol ([3]; listed as Phosphoric Acid): low in methanol
- Tmax [4, 8]: 6.00 h
- exposure compared with free base [4, 8]: superior to the free base in key pharmacokinetic measures
- AUClast ([4]; mice, aqueous suspension, 10 mg/kg of free base, 6-hour study, 10 mg/kg): 230 ng·h/mL
- Mean plasma concentration at 0.67 hr ([4]; mice, aqueous suspension, 10 mg/kg of free base, 0.67 hr, 10 mg/kg): 2.71 ng/mL
- Mean plasma concentration at 1.0 hr [4, 7]: 7.32 ng/mL
- Mean plasma concentration at 1.5 hr [4, 7]: 21.9 ng/mL
- Mean plasma concentration at 2.0 hr ([4]; mice, aqueous suspension, 10 mg/kg of free base, 2.0 hr, 10 mg/kg): 31.7 ng/mL
- Mean plasma concentration at 4.0 hr ([4]; mice, aqueous suspension, 10 mg/kg of free base, 4.0 hr, 10 mg/kg): 48.3 ng/mL
- Cmax ([4]; mice, aqueous suspension, 10 mg/kg): 78 ng/mL
- concentration at 0.33 h ([4]; mouse, plasma, oral, 10 mg/kg, Mean plasma concentration at 0.33 hr, mice, aqueous suspension, 10 mg/kg of free base, 0.33 hr): 0.679 ng/mL

Molecule: tartrate salt of 3-(1H-indol-5-yl)-5-[4-[(4-methyl-1-piperazinyl)methyl]phenyl]-1H-pyrrolo[2,3-b]pyridine
- AUClast [5]: 259 ng·h/mL
- Cmax [5]: 66.9 ng/mL
- Mean plasma concentration at 0.33 hr [5]: 4.24 ng/mL
- Mean plasma concentration at 0.67 hr [5]: 8.2 ng/mL
- Mean plasma concentration at 1.0 hr [5]: 15.2 ng/mL
- Mean plasma concentration at 1.5 hr [5]: 31.4 ng/mL
- Mean plasma concentration at 2.0 hr [5]: 38.8 ng/mL
- Mean plasma concentration at 4.0 hr [5]: 63.4 ng/mL
- Tmax [5]: 4.67 h
- kinetic dissolution in water [6]: fastest to kinetically dissolve
